Key:
Format in all cases: ADME
Settings in all cases: cattle, isolated protein; call rule not given here
[1] = target: T1, Albumin (Bos taurus, UniProt P02769); assay: Binding affinity to Bos taurus (bovine) serum albumin assessed as shift in emission wavelength at 25 to 200 uM after 5 min by fluorimetric analysis
[2] = target: T1, Albumin; assay: Binding affinity to Bos taurus (bovine) serum albumin after 5 min at 25 degC by Stern-Volmer plot analysis
[3] = target: T1, Albumin; assay: Binding affinity to Bos taurus (bovine) serum albumin after 5 min at 37 degC by Stern-Volmer plot analysis
[4] = target: T1, Albumin; assay: Binding affinity to Bos taurus (bovine) serum albumin assessed as decrease in decrease in absorption at 50 uM after 5 min by UV-Vis spectrophotometric analysis; parameters: scale not given: the % may be the effect or the level left
[5] = target: T1, Albumin; assay: Binding affinity to Bos taurus (bovine) serum albumin assessed as decrease in fluorescence at 1:25 protein:compound ratio after 5 min by fluorimetric analysis
[6] = target: T1, Albumin; assay: Binding affinity to Bos taurus (bovine) serum albumin assessed as decrease in fluorescence after 5 min by fluorimetric analysis

T1 sequence (P02769 whole entry): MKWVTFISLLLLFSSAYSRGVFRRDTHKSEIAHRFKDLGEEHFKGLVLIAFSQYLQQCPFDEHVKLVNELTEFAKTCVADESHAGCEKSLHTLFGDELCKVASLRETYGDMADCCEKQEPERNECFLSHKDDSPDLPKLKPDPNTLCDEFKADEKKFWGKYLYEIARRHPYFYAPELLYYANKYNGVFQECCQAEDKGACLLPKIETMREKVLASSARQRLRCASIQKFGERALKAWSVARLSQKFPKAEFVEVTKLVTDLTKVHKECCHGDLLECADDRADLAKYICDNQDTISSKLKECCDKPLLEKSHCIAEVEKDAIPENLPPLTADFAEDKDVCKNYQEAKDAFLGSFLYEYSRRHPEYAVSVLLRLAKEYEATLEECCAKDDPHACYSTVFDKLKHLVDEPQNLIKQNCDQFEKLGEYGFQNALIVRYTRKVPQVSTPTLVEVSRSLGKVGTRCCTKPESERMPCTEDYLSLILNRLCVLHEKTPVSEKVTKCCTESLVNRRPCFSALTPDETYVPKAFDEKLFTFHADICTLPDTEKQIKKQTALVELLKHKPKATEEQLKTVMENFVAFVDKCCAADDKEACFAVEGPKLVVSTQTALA

Row | Activity [1] | K [2] | KSV [2] | Kq [2] | KSV [3] | Kq [3] | Activity [4] | Activity [5] | Activity [6] | Compound
1 | Not Active | 6.7081 ×10⁶ /M | 36.7 ×10³ /M | 3.67 ×10¹² /M/s | 73.5 ×10³ /M | 7.35 ×10¹² /M/s | 50% | Not Active | Dose-dependent effect | CCCCCC(=O)CC(O)S(=O)(=O)[O-].[Na+] (stereo not given) [HEXANOYL ACETAL SODIUM SULFITE]
2 | Not Active | 84.606 ×10⁶ /M | 217.3 ×10³ /M | 21.73 ×10¹² /M/s | 113 ×10³ /M | 11.3 ×10¹² /M/s | 90% | Active | Dose-dependent effect | CCCCCCCCCC(=O)CC(O)S(=O)(=O)[O-].[Na+] (stereo not given) [SODIUM HOUTTUYFONATE]
3 | Not Active | 0.197 ×10⁶ /M | 147.9 ×10³ /M | 14.79 ×10¹² /M/s | 72 ×10³ /M | 7.2 ×10¹² /M/s | 90% | Active | Dose-dependent effect | CCCCCCCCCCCC(=O)CC(O)S(=O)(=O)[O-].[Na+] (stereo not given) [DODECANOYL ACETAL SODIUM SULFITE]
4 | Not Active | 691.83 ×10⁶ /M | 381.3 ×10³ /M | 38.13 ×10¹² /M/s | 529.2 ×10³ /M | 52.92 ×10¹² /M/s | 50% | Active | Dose-dependent effect | CCCCCCCC(=O)CC(O)S(=O)(=O)[O-].[Na+] (stereo not given) [OCTANOYL ACETAL SODIUM SULFITE]
5 | Not Active | 1360.5 ×10⁶ /M | 121.7 ×10³ /M | 12.17 ×10¹² /M/s | 93.2 ×10³ /M | 9.32 ×10¹² /M/s | 90% | Active | Dose-dependent effect | CCCCCCCCCCCCCC(=O)CC(O)S(=O)(=O)[O-].[Na+] (stereo not given) [TETRADECANOYL ACETAL SODIUM SULFITE]

Reference: ChEMBL document CHEMBL3044606, “Binding of sodium houttuyfonate analogues to bovine serum albumin revealed by fluoresence quenching study” (Med Chem Res, 2010)
